Activity calls are given as the source filed them.
Legend:
[1] = target: Lysosomal acid glucosylceramidase (Homo sapiens, UniProt P04062); experiment: Dose response cell-based high throughput screening assay to identify enhancers of beta-glucosidase activity. [Related pubchem assays: 784 ]; assay type: functional
[2] = A cytotoxicity screen of small molecule inhibitors of the PhoP region in Salmonella typhi identified in the primary screen. [Related pubchem assays: 1850, 1864, 1985 ]; assay type: functional
[3] = target: Voltage-dependent T-type calcium channel subunit alpha-1H (Homo sapiens, UniProt O95180); assay type: functional;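 also: channel activity triggered by adding a high calcium stimulation buffer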
Chain of Voltage-dependent T-type calcium channel subunit alpha-1H (O95180 whole entry): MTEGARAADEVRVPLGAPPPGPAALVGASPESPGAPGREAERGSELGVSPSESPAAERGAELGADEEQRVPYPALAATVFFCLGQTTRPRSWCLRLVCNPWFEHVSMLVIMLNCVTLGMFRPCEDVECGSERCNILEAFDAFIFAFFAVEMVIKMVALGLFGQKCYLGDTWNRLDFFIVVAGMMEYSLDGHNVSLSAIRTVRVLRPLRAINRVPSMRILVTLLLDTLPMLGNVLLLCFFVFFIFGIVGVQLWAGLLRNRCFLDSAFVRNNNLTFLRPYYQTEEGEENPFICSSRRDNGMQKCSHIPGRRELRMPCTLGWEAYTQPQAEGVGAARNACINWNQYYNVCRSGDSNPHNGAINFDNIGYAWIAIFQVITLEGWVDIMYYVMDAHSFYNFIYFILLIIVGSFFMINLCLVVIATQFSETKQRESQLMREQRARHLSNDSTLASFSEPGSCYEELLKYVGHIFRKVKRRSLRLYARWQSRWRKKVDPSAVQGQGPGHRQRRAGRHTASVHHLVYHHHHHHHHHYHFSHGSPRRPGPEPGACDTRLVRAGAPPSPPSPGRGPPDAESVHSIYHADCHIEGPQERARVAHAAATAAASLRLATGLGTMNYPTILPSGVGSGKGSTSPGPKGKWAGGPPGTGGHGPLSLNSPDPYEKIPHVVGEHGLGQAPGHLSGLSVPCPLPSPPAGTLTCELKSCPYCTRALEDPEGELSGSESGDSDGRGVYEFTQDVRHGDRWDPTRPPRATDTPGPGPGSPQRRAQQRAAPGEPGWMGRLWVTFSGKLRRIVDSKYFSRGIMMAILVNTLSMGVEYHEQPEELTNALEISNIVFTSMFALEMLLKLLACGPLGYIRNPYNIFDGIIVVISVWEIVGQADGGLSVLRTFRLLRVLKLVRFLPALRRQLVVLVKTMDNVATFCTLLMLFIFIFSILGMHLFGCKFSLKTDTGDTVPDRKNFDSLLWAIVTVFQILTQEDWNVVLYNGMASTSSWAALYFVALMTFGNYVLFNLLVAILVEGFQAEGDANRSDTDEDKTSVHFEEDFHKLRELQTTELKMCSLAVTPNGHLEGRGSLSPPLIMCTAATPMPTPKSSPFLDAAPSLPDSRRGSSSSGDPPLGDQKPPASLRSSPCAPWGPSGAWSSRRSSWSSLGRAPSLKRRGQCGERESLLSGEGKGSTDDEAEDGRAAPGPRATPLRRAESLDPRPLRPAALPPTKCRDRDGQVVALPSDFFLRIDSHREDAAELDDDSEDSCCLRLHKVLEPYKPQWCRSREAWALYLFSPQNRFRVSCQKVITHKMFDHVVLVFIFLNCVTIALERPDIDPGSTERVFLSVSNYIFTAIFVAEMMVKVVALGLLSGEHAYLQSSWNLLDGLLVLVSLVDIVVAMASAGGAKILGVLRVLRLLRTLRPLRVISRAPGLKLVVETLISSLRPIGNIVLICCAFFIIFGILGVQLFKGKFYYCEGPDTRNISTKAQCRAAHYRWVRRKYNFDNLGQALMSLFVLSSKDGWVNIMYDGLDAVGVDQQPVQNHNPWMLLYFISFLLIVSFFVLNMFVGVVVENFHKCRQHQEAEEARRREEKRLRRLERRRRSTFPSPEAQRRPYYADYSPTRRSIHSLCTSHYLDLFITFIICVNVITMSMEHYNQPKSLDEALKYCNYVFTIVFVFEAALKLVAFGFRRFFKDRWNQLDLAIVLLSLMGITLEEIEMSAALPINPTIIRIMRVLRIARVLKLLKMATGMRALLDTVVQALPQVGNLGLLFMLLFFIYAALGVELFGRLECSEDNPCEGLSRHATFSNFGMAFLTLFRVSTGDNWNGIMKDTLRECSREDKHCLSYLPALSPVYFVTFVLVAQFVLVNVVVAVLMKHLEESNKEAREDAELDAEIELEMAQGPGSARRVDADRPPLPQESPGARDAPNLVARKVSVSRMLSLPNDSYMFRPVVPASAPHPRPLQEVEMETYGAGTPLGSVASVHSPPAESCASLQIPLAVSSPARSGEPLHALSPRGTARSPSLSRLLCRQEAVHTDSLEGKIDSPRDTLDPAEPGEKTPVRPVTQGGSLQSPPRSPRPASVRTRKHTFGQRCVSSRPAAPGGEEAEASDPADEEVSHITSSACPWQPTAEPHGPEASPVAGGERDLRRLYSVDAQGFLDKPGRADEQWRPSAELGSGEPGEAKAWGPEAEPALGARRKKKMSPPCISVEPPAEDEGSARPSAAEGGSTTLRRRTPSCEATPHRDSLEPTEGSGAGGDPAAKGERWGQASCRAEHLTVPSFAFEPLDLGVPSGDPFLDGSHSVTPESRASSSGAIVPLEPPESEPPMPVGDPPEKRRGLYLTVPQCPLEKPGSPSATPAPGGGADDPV

Cytochrome P450 2D6 = Cytochrome P450 2D6 (Homo sapiens, UniProt P10635); experiment: qHTS Assay for Inhibitors and Substrates of Cytochrome P450 2D6. [Related pubchem assays: 410 ]; assay type: ADME; details: read-out: Potency
Cytochrome P450 2C19 = Cytochrome P450 2C19 (Homo sapiens, UniProt P33261); experiment: qHTS Assay for Inhibitors and Substrates of Cytochrome P450 2C19. [Related pubchem assays: 410 ]; assay type: ADME; details: read-out: Potency
[4] = target: G-protein coupled receptor 55 (Homo sapiens, UniProt Q9Y2T6); experiment: GPR55 agonists via beta-arrestin recruitment, primary screen, imaging, U2OS cells, beta-arrestin-GFP redistribution (AID 1961); assay type: functional
Chain of G-protein coupled receptor 55 (Q9Y2T6 whole entry): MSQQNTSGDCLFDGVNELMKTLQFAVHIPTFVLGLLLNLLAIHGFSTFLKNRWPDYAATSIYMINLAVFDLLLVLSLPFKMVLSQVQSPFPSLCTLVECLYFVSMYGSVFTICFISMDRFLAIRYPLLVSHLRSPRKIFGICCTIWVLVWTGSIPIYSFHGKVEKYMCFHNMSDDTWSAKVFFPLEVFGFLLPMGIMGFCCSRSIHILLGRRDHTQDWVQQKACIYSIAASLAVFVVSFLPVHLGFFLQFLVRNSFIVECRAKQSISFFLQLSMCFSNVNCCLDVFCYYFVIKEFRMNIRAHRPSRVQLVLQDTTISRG

Protein Rev = Protein Rev (Human immunodeficiency virus type 1 group M subtype B (isolate HXB2)(HIV-1), UniProt P04618); experiment: inhibitors of Rev binding to RRE RNA, dose response, biochemical, fluorescence polarization, HIV-1 (AID 434976); parameters: species or system Human immunodeficiency virus 1
Chain of Protein Rev (P04618 whole entry): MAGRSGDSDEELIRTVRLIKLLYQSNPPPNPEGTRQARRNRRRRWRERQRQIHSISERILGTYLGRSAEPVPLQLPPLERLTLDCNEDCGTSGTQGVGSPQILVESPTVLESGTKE

[5] = target: Female germline-specific tumor suppressor gld-1 (Caenorhabditis elegans, UniProt Q17339); experiment: inhibitors of GLD-1 binding to TGE RNA, dose response, biochemical, fluorescence polarization, C. elegans (AID 2802);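 also: fluorescence polarization of labeled TGE RNA bound by purified gld-1 protein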
Chain of Female germline-specific tumor suppressor gld-1 (Q17339 whole entry): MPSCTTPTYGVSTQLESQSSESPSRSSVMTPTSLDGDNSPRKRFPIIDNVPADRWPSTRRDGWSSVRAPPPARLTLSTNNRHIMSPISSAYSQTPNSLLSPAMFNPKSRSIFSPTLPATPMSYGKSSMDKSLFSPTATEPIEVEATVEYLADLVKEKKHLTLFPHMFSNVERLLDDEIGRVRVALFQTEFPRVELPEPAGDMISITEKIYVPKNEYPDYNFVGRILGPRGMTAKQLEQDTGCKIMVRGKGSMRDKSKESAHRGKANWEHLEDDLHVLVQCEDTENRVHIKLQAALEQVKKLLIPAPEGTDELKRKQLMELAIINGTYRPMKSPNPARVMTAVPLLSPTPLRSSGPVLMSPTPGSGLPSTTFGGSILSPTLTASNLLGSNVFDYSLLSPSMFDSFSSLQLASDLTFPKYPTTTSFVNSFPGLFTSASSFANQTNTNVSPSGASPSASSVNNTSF

[6] = target: T1, Dual specificity protein phosphatase 6 (Rattus norvegicus, UniProt Q64346)
T1 sequence (Q64346 whole entry): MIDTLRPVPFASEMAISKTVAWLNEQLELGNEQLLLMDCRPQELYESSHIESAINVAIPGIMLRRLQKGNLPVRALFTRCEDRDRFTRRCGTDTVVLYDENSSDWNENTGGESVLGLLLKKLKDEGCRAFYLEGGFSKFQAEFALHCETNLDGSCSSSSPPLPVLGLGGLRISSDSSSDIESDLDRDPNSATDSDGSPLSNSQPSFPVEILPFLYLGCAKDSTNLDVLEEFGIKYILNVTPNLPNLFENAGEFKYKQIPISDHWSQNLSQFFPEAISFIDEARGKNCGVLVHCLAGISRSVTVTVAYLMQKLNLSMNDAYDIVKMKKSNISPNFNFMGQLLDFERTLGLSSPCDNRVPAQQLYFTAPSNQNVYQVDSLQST

[7] = target: T2, Tyrosine-protein phosphatase non-receptor type 7 (Homo sapiens, UniProt P35236); assay type: functional
T2 sequence (P35236 whole entry): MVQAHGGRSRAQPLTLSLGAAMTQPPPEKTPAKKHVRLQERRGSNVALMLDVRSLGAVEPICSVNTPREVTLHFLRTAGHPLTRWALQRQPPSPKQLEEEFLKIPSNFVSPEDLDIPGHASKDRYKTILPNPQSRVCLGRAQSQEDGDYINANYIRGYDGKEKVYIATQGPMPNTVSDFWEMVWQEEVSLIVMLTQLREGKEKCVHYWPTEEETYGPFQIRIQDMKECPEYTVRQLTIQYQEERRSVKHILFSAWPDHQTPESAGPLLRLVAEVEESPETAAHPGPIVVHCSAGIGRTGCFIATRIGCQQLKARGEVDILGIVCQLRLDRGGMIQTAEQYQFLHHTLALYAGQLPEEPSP

[8] = target: T1, Dual specificity protein phosphatase 6; assay type: functional
[9] = target: Glyceraldehyde-3-phosphate dehydrogenase (Homo sapiens, UniProt P04406)
Chain of Glyceraldehyde-3-phosphate dehydrogenase (P04406 whole entry): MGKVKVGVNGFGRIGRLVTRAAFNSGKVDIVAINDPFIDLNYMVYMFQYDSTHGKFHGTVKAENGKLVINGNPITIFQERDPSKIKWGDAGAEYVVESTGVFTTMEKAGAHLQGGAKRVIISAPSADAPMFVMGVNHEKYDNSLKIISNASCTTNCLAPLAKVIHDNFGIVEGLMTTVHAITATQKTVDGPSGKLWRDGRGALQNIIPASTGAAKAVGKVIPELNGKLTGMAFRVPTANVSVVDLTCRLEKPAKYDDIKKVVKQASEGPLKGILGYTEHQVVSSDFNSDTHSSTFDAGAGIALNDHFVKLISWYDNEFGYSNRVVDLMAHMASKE

H9c2 = experiment: cells; assay type: functional, cell-based; details: Rattus norvegicus, H9c2, Myocardium;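 also: confirmatory concentration-response retest of ultra-high-throughput screening hits for modulation of myocardial damage; cell death induced by hydrogen peroxide oxidative stress; compound pretreatment for 60 min then peroxide exposure for 2 h; potency is for protecting the cells against peroxide damage rather than for killing them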
[10] = target: DNA dC->dU-editing enzyme APOBEC-3A (Homo sapiens, UniProt P31941); experiment: APOBEC3A DNA deaminase inhibitors, dose response, biochemical (AID 504722); assay type: functional
Chain of DNA dC->dU-editing enzyme APOBEC-3A (P31941 whole entry): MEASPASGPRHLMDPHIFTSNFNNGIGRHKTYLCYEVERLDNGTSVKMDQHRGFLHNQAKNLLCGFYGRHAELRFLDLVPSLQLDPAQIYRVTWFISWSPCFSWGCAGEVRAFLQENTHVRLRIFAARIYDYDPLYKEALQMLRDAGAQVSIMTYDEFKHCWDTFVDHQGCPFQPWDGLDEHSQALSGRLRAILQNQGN

[11] = target: DNA dC->dU-editing enzyme APOBEC-3G (Homo sapiens, UniProt Q9HC16); experiment: Dose Response confirmation of small molecule APOBEC3G DNA Deaminase Inhibitors via a fluorescence-based single-stranded DNA deaminase assay. [Related pubchem assays (depositor defined):AID493012, AID493028]; assay type: functional
Streptococcus = experiment: Group A Streptococcus viability loss, dose response, counter-screen for streptokinase expression inhibitor project, luminescence, BacTiterGlo (AID 1915); assay type: functional, organism-based;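 also: potency for reduction of bacterial viability or growth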
[12] = tested on: Streptococcus sp. 'group A'; experiment: growth inhibition of control SK(-) GAS strain, dose response, counter-screen for streptokinase expression inhibitor project, luminescence, kanamycin, BacTiterGlo, confirmation (AID 1900); assay type: functional, organism-based
[13] = target: Serine/threonine-protein phosphatase PP1-alpha catalytic subunit (Homo sapiens, UniProt P62136); experiment: PP1 phosphatase inhibitors, dose response, biochemical, fluorescence (AID 2403);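 also: phosphatase turnover of OMFP into fluorescent 3-O-methylfluorescein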
INS1 = experiment: beta cell apoptosis inhibitors, cytokine rescue, dose response, luminescence, retest (AID 449756); assay type: functional, cell-based; details: Rattus norvegicus;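 also: cell death triggered by IL-1 beta plus TNF-alpha plus IFN-gamma mixture; protective hits raise ATP signal compared with cytokine alone wells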
[14] = target: Serine/threonine-protein phosphatase (Homo sapiens, UniProt Q9BPW0); experiment: Counterscreen for inhibitors of PP1: fluorescence-based biochemical high throughput dose response assay to identify inhibitors of Protein Phosphatase 5 (PP5). [Related pubchem assays: 2034 (Summary (PP5 inhibitors)), 1987 (PP5 inhibitors in singlate), 2235 (PP1 inhibitors in singlate)]
Streptokinase A = target: T3, Streptokinase A (Streptococcus pyogenes serotype M1, UniProt P10520); experiment: S. pyogenes streptokinase expression inhibitors, potency, dose response, plasminogen activation absorbance, OD405 (AID 1914); assay type: functional, Streptococcus pyogenes M1 GAS;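 also: secreted streptokinase activity via plasminogen activation per viability signal from cell pellet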
T3 sequence (P10520 whole entry): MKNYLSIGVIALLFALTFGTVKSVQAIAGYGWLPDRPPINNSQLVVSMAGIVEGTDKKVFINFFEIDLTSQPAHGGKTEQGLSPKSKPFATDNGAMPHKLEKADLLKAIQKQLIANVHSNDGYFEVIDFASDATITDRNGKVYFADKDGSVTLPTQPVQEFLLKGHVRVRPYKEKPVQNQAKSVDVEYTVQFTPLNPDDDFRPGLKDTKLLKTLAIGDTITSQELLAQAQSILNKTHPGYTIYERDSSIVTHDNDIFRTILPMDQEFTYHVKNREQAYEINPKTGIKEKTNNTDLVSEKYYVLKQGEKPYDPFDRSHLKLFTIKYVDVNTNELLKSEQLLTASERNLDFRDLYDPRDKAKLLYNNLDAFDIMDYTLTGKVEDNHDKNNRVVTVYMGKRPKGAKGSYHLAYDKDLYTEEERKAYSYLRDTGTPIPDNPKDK

[15] = cytotoxicity toward NIH3T3 fibroblasts, dose response, counter-screen, cell-based, ATP luminescence, mouse fibroblasts (AID 2010); assay type: functional;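 also: cells exposed to compound for about 90 hours before reading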
[16] = inhibitors of intracellular T. cruzi replication, confirmation, NIH3T3 host cells, beta-gal luminescence (AID 2044); assay type: functional, cell-based;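 also: intracellular parasites grown in NIH/3T3 mouse fibroblasts as host cells; luminescent beta-galactosidase reporter signal from transgenic T. cruzi replicating inside host cells; inhibitors lower the luminescence signal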
[17] = inhibitors of SNCA 5'UTR-driven reporter translation, confirmation, H4 neuroglioma cells, luminescence (AID 1988); assay type: functional, cell-based
[18] = luciferase reporter signal reduction – luminescence, H4-C neuroglioblastoma cells, dose response (AID 2458); assay type: functional, cell-based;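 also: H4 neuroglioblastoma cells stably carrying a luciferase reporter gene fusion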
cells = assay type: functional, cell-based
[19] = target: T4, Heat shock factor protein 1 (Mus musculus, UniProt P38532); experiment: inhibition of MG132-induced HSE-luciferase signal, confirmation, cell-based, NIH3T3, luminescence, dose retest (AID 2382); assay type: functional;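 also: NIH3T3 fibroblasts with HSF1-driven luciferase reporter stressed by proteasome inhibitor MG132; luminescence from HSF1-driven luciferase expression after 8 hours of MG132 stress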
T4 sequence (P38532 whole entry): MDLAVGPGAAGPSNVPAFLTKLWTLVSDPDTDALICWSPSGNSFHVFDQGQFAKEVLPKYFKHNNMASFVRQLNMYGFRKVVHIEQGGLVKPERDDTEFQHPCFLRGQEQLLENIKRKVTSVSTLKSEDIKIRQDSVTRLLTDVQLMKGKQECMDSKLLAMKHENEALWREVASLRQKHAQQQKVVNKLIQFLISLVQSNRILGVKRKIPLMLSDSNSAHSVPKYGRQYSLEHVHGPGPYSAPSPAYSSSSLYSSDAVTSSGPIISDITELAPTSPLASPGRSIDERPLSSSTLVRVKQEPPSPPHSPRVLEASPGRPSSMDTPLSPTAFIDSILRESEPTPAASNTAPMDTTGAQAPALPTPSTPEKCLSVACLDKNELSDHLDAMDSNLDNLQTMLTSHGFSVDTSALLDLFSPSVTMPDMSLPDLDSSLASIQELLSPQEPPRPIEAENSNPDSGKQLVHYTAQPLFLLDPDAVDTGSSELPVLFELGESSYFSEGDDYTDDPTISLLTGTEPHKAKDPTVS

[20] = target: T5, Zinc finger protein mex-5 (Caenorhabditis elegans, UniProt Q9XUB2); experiment: MEX-5/TCR-2 RNA interaction inhibitors, dose response, biochemical, C. elegans, fluorescence polarization (AID 1960)
T5 sequence (Q9XUB2 whole entry): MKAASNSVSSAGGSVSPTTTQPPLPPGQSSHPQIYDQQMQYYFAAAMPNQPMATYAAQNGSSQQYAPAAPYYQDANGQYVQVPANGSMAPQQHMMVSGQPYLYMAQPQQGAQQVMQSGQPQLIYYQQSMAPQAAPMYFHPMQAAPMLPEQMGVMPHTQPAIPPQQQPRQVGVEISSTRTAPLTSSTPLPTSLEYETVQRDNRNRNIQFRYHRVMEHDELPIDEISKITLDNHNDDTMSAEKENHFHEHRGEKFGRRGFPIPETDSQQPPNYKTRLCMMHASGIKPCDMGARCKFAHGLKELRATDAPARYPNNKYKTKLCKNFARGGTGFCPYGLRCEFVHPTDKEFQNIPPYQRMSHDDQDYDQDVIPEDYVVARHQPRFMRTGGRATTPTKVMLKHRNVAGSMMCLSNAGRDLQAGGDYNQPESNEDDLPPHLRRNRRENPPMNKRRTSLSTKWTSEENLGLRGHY

[21] = inhibitors of SNCA 5'UTR-driven translation, confirmation, luminescence, H4 neuroglioblastoma cells, dose confirmation (AID 2454); assay type: functional, cell-based;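 also: H4 neuroglioblastoma cells carrying an alpha-synuclein 5'UTR luciferase reporter; potency for inhibition of the luciferase signal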
[22] = target: T6, RNA-binding protein pos-1 (Caenorhabditis elegans, UniProt G5EF15); experiment: inhibitors of POS-1/mex-3 RNA binding, dose response, biochemical, fluorescence polarization (AID 1964);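 also: purified POS-1 fused to maltose binding protein made in E. coli; potency of compounds blocking POS-1 binding to fluorescent RNA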
T6 sequence (G5EF15 whole entry): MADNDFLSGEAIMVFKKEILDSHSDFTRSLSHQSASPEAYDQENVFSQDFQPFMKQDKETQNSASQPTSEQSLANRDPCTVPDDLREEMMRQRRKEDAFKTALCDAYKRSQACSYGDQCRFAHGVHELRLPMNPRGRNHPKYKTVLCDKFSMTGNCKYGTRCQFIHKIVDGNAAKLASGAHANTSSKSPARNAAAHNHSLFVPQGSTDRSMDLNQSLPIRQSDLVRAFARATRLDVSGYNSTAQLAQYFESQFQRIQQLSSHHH

[23] = target: T7, Polyadenylate-binding protein 1 (Homo sapiens, UniProt P11940); experiment: PABP1 MLLE–PAM2 interaction inhibitors, dose response, miRNA deadenylation inhibitor project, biochemical, fluorescence polarization, Cy5-PAM2 peptide, secondary (AID 602260); assay type: functional; details: read-out: IC50_Mean
T7 sequence (P11940 whole entry): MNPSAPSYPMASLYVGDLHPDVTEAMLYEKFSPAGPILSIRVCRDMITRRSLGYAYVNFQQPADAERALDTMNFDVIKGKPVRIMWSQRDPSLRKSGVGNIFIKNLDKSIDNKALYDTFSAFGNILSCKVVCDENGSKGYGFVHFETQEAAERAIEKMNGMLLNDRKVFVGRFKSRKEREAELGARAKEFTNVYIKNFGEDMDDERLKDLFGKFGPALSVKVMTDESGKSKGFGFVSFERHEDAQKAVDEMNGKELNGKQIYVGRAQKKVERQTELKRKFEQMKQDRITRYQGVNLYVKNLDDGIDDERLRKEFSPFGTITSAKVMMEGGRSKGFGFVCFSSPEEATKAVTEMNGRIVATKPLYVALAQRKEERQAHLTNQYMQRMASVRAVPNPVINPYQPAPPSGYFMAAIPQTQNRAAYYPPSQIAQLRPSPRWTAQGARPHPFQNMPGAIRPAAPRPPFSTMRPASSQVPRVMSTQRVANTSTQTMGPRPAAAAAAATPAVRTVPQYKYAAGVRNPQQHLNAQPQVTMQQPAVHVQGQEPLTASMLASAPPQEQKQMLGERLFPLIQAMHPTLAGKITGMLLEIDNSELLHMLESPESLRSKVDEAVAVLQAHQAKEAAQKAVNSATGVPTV

[24] = target: T7, Polyadenylate-binding protein 1; experiment: PABP1 MLLE–PAM2 binding inhibitor potency, dose response, biochemical, fluorescence polarization, FITC-PAM2 peptide (AID 602259); assay type: functional; details: read-out: IC50_Mean

Chain of Lysosomal acid glucosylceramidase (P04062 whole entry): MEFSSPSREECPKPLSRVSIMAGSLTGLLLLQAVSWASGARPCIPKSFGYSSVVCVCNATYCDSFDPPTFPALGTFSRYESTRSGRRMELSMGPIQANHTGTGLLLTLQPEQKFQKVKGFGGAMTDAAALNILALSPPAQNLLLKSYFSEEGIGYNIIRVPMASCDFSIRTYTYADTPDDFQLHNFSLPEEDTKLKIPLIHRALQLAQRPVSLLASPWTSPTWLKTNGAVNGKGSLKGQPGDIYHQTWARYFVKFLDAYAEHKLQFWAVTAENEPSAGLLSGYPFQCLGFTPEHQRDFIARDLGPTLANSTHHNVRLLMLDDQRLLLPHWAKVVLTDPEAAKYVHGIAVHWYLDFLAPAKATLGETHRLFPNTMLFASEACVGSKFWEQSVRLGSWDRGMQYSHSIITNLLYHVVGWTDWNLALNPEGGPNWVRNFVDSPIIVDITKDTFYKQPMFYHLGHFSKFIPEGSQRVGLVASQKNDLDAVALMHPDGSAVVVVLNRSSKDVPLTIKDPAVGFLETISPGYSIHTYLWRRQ

C/C(=N\O)c1ccc2c3ccccc3n(C)c2c1
EC50 [1]: > 50 µM (not active)

CCN(C1CCCCC1)S(=O)(=O)c1ccc(OC)c(C)c1
EC50 [2]: > 50 µM (active) | EC50 [3]: 3.88 µM (active)

C=CCCC/C=C(/C)C(OCc1ccc(OC)cc1)C(CC/C=C(\C)C(N)=O)OC (configuration not stated)
AC50 (Cytochrome P450 2D6): 3.16 µM (inconclusive) | AC50 (Cytochrome P450 2C19): 2.51 µM (inconclusive)

COc1cc(C(CC(=O)N2CCCC2)c2c(OC)cc(OC)c3c(-c4ccccc4)cc(=O)oc23)cc(OC)c1OC (configuration not stated)
EC50 [4]: 6.57 µM (active)

COC(=O)c1cc2c(C)cc3ccc(C)cn3c-2c1C(=O)OC
IC50 (Protein Rev): 12.2 µM (not active) | IC50 [5]: > 2.21 µM (active)

CCCn1c(=O)nc(NCc2ccc(C)cc2)[nH]c1=O
IC50 [6]: > 100 µM (inactive) | IC50 [7]: > 100 µM (not active) | IC50 [8]: > 100 µM (inactive) | IC50 [9]: > 100 µM (not active)

C=CCNC(=O)CCCOc1cc(C)ccc1C
EC50 [1]: > 50 µM (not active)

CCOC(=O)C1Nc2c(OC)cccc2C2OCCC12 (configuration not stated)
IC50 [6]: > 100 µM (inactive) | IC50 [7]: > 100 µM (not active) | IC50 [8]: > 100 µM (inactive) | IC50 [9]: > 100 µM (not active)

CC[C@@]12CCCN3CC[C@@]4(c5ccc(OC)c(O)c5N(C(C)=O)[C@H]4CC1)[C@H]32
AC50 (Cytochrome P450 2D6): 20 µM (inconclusive)

CCC(=O)N1CCN(c2ccccc2NC(=O)COc2cc(C)ccc2C(C)C)CC1
IC50 (H9c2): > 79 µM (inactive) | EC50 [3]: 2.97 µM (active)

Cc1ccsc1/C=N/n1c(S)nnc1-c1ccco1
IC50 [10]: > 100 µM (inactive) | IC50 [11]: 1.79 µM (active)

CCOC(=O)c1cnc(-n2nc(C)cc2C)nc1NCc1ccccc1
EC50 (Streptococcus): 9.69 µM (active) | EC50 [12]: 8.49 µM (active) | IC50 [13]: 5.83 µM (active) | AC50 (INS1): 5.4 µM (active) | IC50 [14]: > 67 µM (not active) | EC50 (Streptokinase A): > 150 µM (not active) | EC50 [15]: > 60 µM (not active) | EC50 [16]: 2.09 µM (active)

Cc1cc(/C=c2/sc3nc4ccccc4n3c2=O)c(C)n1-c1ccccn1
EC50 [17]: < 0.1 µM (active) | EC50 [18]: 0.084 µM (active) | EC50 (cells): 0.076 µM (active) | EC50 [19]: < 0.16 µM (active) | EC50 [20]: > 300 µM (not active) | EC50 [21]: 0.092 µM (active) | EC50 [22]: > 300 µM (not active)

O=c1[nH]c2cc3ccccc3cc2nc1C(F)(F)F
IC50 [23]: > 66 µM (inactive) | IC50 (Protein Rev): > 75.5 µM (not active) | IC50 [5]: 2.9 µM (active) | IC50 [24]: 46.2 µM (inactive)

CCc1ccc(Nc2n[n+](-c3ccccc3)c(-c3cc(OC)c(OC)cc3Br)s2)cc1
EC50 [4]: 21.2 µM (inactive)

Source: ChEMBL document CHEMBL1201862, “PubChem BioAssay data set” (2004)
